Data as given in patent publication US6358885B1, “Substituted phenylheterocyclic herbicides” (Mississippi State University, priority 1992, dated 2002).

Columns and labels:
rape = assay: Test B preemergence/postemergence greenhouse plant response rating 0 to 10; format: in vivo, Brassica napus; conditions: 0 to 10 scale
Procedure, shortened: (§1)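 Test chemicals were sprayed onto freshly planted seed and, concurrently, onto young plants between the one and four leaf stage. After a twelve- to sixteen-day greenhouse period, each species was visually compared with untreated controls.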

umbrella sedge = assay: Test C flood test plant response rating 0 to 100; format: in vivo, Cyperus difformis
Procedure, shortened: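 Compounds in non-phytotoxic solvent applied preemergence to sandy loam one day after planting, postemergence at the 1–4 leaf stage, or to ~2.5 cm floodwater over silt loam.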

crabgrass = assay: Test B preemergence/postemergence greenhouse plant response rating 0 to 10; format: in vivo, Digitaria spp.; conditions: 0 to 10 scale
Procedure, shortened: as §1

chickweed [1] = assay: as above; format: in vivo, Stellaria media; conditions: POSTEMERGENCE, 0 to 10 scale
Procedure, shortened: as §1

wild buckwheat = assay: Test C preemergence/postemergence greenhouse plant response rating 0 to 100; format: in vivo, Polygonum convolvulus; conditions: POSTEMERGENCE
Procedure, shortened: (§2)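 Compounds in non-phytotoxic solvent went onto sandy loam before emergence (seeded one day earlier) or onto plants at the one-to-four leaf stage. Duck salad was treated via flood water (~2.5 cm, maintained) over silt loam.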

wheat = assay: Test B preemergence/postemergence greenhouse plant response rating 0 to 10; format: in vivo, Triticum aestivum; conditions: 0 to 10 scale
Procedure, shortened: as §1

corn = assay: as above; format: in vivo, Zea mays; conditions: 0 to 10 scale
Procedure, shortened: as §1

soybean [2] = assay: as above; format: in vivo, Glycine max; conditions: 0 to 10 scale
Procedure, shortened: as §1

sorghum = assay: as above; format: in vivo, Sorghum bicolor; conditions: 0 to 10 scale
Procedure, shortened: as §1

soybean [3] = assay: Test C preemergence/postemergence greenhouse plant response rating 0 to 100; format: in vivo, Glycine max; conditions: POSTEMERGENCE
Procedure, shortened: as §2

morningglory [4] = assay: as above; format: in vivo, Ipomoea hederacea; conditions: POSTEMERGENCE
Procedure, shortened: as §2

chickweed [5] = assay: as above; format: in vivo, Stellaria media; conditions: POSTEMERGENCE
Procedure, shortened: as §2

bedstraw = assay: as above; format: in vivo, Galium aparine; conditions: POSTEMERGENCE
Procedure, shortened: as §2

barley = assay: as above; format: in vivo, Hordeum vulgare; conditions: POSTEMERGENCE
Procedure, shortened: as §2

morningglory [6] = assay: Test B preemergence/postemergence greenhouse plant response rating 0 to 10; format: in vivo, Ipomoea hederacea; conditions: 0 to 10 scale
Procedure, shortened: as §1

wild oat = assay: as above; format: in vivo, Avena fatua; conditions: 0 to 10 scale
Procedure, shortened: as §1

downy brome = assay: Test C preemergence/postemergence greenhouse plant response rating 0 to 100; format: in vivo, Bromus tectorum; conditions: POSTEMERGENCE
Procedure, shortened: as §2

purple nutsedge = assay: Test B preemergence/postemergence greenhouse plant response rating 0 to 10; format: in vivo, Cyperus rotundus; conditions: 0 to 10 scale
Procedure, shortened: as §1

`C=CCN1C(=O)COc2cc(F)c(-c3nn4c(c3Cl)CCCC4)cc21` [Compound 33] was tested, and the “Plant response rating, Rape” value (rape; POSTEMERGENCE, Rate 10 g/ha) was 10, the “Plant response rating, Rape” value (rape; POSTEMERGENCE, Rate 50 g/ha) was 10 and the “Plant response rating, Rape” value (rape; PREEMERGENCE, Rate 50 g/ha) was 5. The “Plant response rating (0 to 100), Umbrella sedge” value (umbrella sedge; POSTEMERGENCE section, flood test, Rate 1 g/ha) was 10, the “Plant response rating (0 to 100), Umbrella sedge” value (umbrella sedge; POSTEMERGENCE section, flood test, Rate 4 g/ha) was 20 and the “Plant response rating (0 to 100), Umbrella sedge” value (umbrella sedge; Rate 16 g/ha, under POSTEMERGENCE head (flood test species)) was 70. The “Plant response rating Umbrella sedge” value (umbrella sedge; flood test species listed under POSTEMERGENCE, 62 g/ha, 0 to 100 scale) was 80, the “Plant response rating, Crabgrass” value (crabgrass; POSTEMERGENCE, Rate 10 g/ha) was 3 and the “Plant response rating, Crabgrass” value (crabgrass; POSTEMERGENCE, Rate 50 g/ha) was 5. For the same molecule, the “Plant response rating, Crabgrass” value (crabgrass; PREEMERGENCE, Rate 10 g/ha) was 2, the “Plant response rating, Crabgrass” value (crabgrass; PREEMERGENCE, Rate 50 g/ha) was 6 and the “Plant response rating, Chickweed” value (chickweed [1]; Rate 10 g/ha) was 10. For the same molecule, the “Plant response rating, Chickweed” value (chickweed [1]; Rate 50 g/ha) was 10, the “Plant response rating, Wild buckwheat” value (wild buckwheat; 62 g/ha, 0 to 100 scale) was 100 and the “Plant response rating (0 to 100), Wild buckwheat” value (wild buckwheat; Rate 1 g/ha) was 80. For the same molecule, the “Plant response rating (0 to 100), Wild buckwheat” value (wild buckwheat; Rate 4 g/ha) was 90, the “Plant response rating, Wheat” value (wheat; POSTEMERGENCE, Rate 10 g/ha) was 3 and the “Plant response rating, Wheat” value (wheat; POSTEMERGENCE, Rate 50 g/ha) was 5. For the same molecule, the “Plant response rating, Wheat” value (wheat; PREEMERGENCE, Rate 50 g/ha) was 2, the “Plant response rating, Corn” value (corn; POSTEMERGENCE, Rate 10 g/ha) was 3 and the “Plant response rating, Corn” value (corn; POSTEMERGENCE, Rate 50 g/ha) was 4. For the same molecule, the “Plant response rating, Corn” value (corn; PREEMERGENCE, Rate 50 g/ha) was 0, the “Plant response rating, Soybean” value (soybean [2]; POSTEMERGENCE, Rate 10 g/ha) was 8 and the “Plant response rating, Soybean” value (soybean [2]; POSTEMERGENCE, Rate 50 g/ha) was 9. For the same molecule, the “Plant response rating, Soybean” value (soybean [2]; PREEMERGENCE, Rate 50 g/ha) was 2, the “Plant response rating, Sorghum” value (sorghum; POSTEMERGENCE, Rate 10 g/ha) was 6 and the “Plant response rating, Sorghum” value (sorghum; POSTEMERGENCE, Rate 50 g/ha) was 6. The “Plant response rating, Sorghum” value (sorghum; PREEMERGENCE, Rate 50 g/ha) was 0, the “Plant response rating, Soybean” value (soybean [3]; 62 g/ha, 0 to 100 scale) was 100 and the “Plant response rating (0 to 100), Soybean” value (soybean [3]; Rate 1 g/ha) was 30. The “Plant response rating (0 to 100), Soybean” value (soybean [3]; Rate 4 g/ha) was 40, the “Plant response rating (0 to 100), Soybean” value (soybean [3]; Rate 16 g/ha) was 80 and the “Plant response rating, Morningglory” value (morningglory [4]; 62 g/ha, 0 to 100 scale) was 100. For the same molecule, the “Plant response rating (0 to 100), Morningglory” value (morningglory [4]; Rate 1 g/ha) was 50, the “Plant response rating (0 to 100), Morningglory” value (morningglory [4]; Rate 4 g/ha) was 70 and the “Plant response rating (0 to 100), Morningglory” value (morningglory [4]; Rate 16 g/ha) was 90. For the same molecule, the “Plant response rating, Chickweed” value (chickweed [5]; 62 g/ha, 0 to 100 scale) was 100, the “Plant response rating (0 to 100), Chickweed” value (chickweed [5]; Rate 1 g/ha) was 40 and the “Plant response rating (0 to 100), Chickweed” value (chickweed [5]; Rate 4 g/ha) was 60. For the same molecule, the “Plant response rating (0 to 100), Chickweed” value (chickweed [5]; Rate 16 g/ha) was 85, the “Plant response rating, Bedstraw” value (bedstraw; 62 g/ha, 0 to 100 scale) was 100 and the “Plant response rating (0 to 100), Bedstraw” value (bedstraw; Rate 1 g/ha) was 80. For the same molecule, the “Plant response rating (0 to 100), Bedstraw” value (bedstraw; Rate 4 g/ha) was 90, the “Plant response rating (0 to 100), Bedstraw” value (bedstraw; Rate 16 g/ha) was 100 and the “Plant response rating Barley Igri” value (barley; 62 g/ha, 0 to 100 scale) was 60. The “Plant response rating (0 to 100), Barley Igri” value (barley; Rate 1 g/ha) was 20, the “Plant response rating (0 to 100), Barley Igri” value (barley; Rate 4 g/ha) was 40 and the “Plant response rating (0 to 100), Barley Igri” value (barley; Rate 16 g/ha) was 50. The “Plant response rating, Morningglory” value (morningglory [6]; POSTEMERGENCE, Rate 10 g/ha) was 9, the “Plant response rating, Morningglory” value (morningglory [6]; POSTEMERGENCE, Rate 50 g/ha) was 10 and the “Plant response rating, Morningglory” value (morningglory [6]; PREEMERGENCE, Rate 50 g/ha) was 10. The “Plant response rating, Wild oat” value (wild oat; POSTEMERGENCE, Rate 10 g/ha) was 4, the “Plant response rating, Wild oat” value (wild oat; POSTEMERGENCE, Rate 50 g/ha) was 5 and the “Plant response rating, Wild oat” value (wild oat; PREEMERGENCE, Rate 50 g/ha) was 7. The “Plant response rating Downy Brome” value (downy brome; 62 g/ha, 0 to 100 scale) was 60, the “Plant response rating (0 to 100), Downy Brome” value (downy brome; Rate 1 g/ha) was 30 and the “Plant response rating (0 to 100), Downy Brome” value (downy brome; Rate 4 g/ha) was 40. The “Plant response rating (0 to 100), Downy Brome” value (downy brome; Rate 16 g/ha) was 60, the “Plant response rating, Nutsedge” value (purple nutsedge; POSTEMERGENCE, Rate 10 g/ha) was 0 and the “Plant response rating, Nutsedge” value (purple nutsedge; POSTEMERGENCE, Rate 50 g/ha) was 5. The “Plant response rating, Nutsedge” value (purple nutsedge; PREEMERGENCE, Rate 50 g/ha) was 0.
